The text below walks through data of patent US20110311643A1, “SUPPLEMENTED MATRICES FOR THE REPAIR OF BONE FRACTURES” (Kuros Biosurgery AG, priority 2005, published 2011).

Marks after values point to notes of the source that are not given here. Bounds are passed on as bounds.

Data set [1] in a line: Stability of PTH / TGPTH in buffer (spiked samples, direct ELISA). As to conditions: 0.5 μg/mL; 37° C.; distilled water, phosphate buffer saline, tris-buffer saline. In kind it is physicochemical. As to the method:
For the first release assay a fibrin matrix of 50 μl with 0.1 mg PTH or TGPTH per ml fibrin matrix was incubated at 37° C. in 10 ml buffer. Therefore, the concentration of PTH or TGPTH in the buffer in case of a total release would be 0.5 μg PTH or TGPTH/mL fibrin matrix. In order to compare the stability of PTH or TGPTH during the assay, samples of PTH or TGPTH were diluted directly in the buffer to a concentration of 0.5 μg PTH or TGPTH/mL fibrin matrix. Different buffers were tested: distilled water, phosphate buffer saline, tris-buffer saline.
Aliquots were taken at days 0, 1, 2, 4 and 6 and analysed by direct ELISA. […] Therefore, no conclusion could be made on the release data. The PTH stability was certainly affected by its low concentration and the buffers that were not optimal.
The release experiment was repeated by using a stabilizing buffer containing 50 mM mannitol in a 10 mM sodium acetate buffer. In addition, the buffer was exchanged every 2 days in order to prevent any degradation of peptide. […] The concentration of PTH or TGPTH in the buffer in case of a total release would be 100 μg/mL fibrin matrix (200 times more than before). […] Samples were collected every 2 to 4 days (with a change of buffer) during 2 weeks and analysed by direct ELISA. […]
For orientation: In an ELISA, binding on a coated surface is turned into a signal by an enzyme label.

Data set [2] has as its system acute, open tibial shaft fractures. Kind of data set: Phase II clinical study of I-040202 in tibial shaft fractures. Type of data set: in vivo, patients. As to conditions: Intent-to-Treat. The text has this:
This was a Phase II, prospective, randomized, controlled, open-label (dose-blinded), parallel-group, multi-center clinical study of the efficacy and safety of TGplPTH1-34 in a matrix made of fibrin (I-040202) in patients with acute, open tibial shaft fractures. The supplemented matrix was applied directly to the fracture site in the form of a paste. A total of 200 patients were randomized and treated in 31 centers across Europe.
The study consisted of four study groups: one control group using standard of care (SoC) which included intramedullary nailing and soft tissue management, and three treatment groups using 4 mL of I-040202 containing TGplPTH1-34 at concentrations of 0.133, 0.4 and 1.0 mg/mL fibrin matrix respectively (different concentrations of TGplPTH1-34), as an adjunct to SoC. Patients followed up clinically and radiologically on a monthly basis until 6 months post-surgery, and thereafter at 9 and 12 months post-surgery.
The primary endpoint was the proportion of patients who had fracture healing at 6 months as assessed by the investigator using radiographic and clinical parameters. Three doses of I-040202 in combination with SoC were compared against SoC alone.

Data set [3] deals with 1 cm segmental tibial defect. Kind of data set: Sheep tibial defect model, supplemented fibrin matrix with TCP granules. In kind it is in vivo. As to the method: The fibrin matrix was formed starting from the TISSEEL® Kit (Baxter AG, CH-8604 Volketswil/ZH) giving 4 mL fibrin matrix. TISSEEL® is produced from human derived pooled plasma and the content of active ingredients may vary from lot to lot within predefined ranges.
Matrix: A supplemented fibrin matrix containing granular material and PTH fusion peptide (TGplPTH1-34) was prepared using 3 separate syringes, a two-way syringe containing fibrin precursor solution and PTH fusion peptide (syringes 1 and 2) and two one-way syringes, one containing water and the other containing granules (syringes 3 and 4).
First the hydroxyapatite/calcium phosphate granules in syringe 4 were wetted by injection of the water of syringe 3. The fibrin precursor solution of syringe 1 (fibrinogen and TGplPTH1-34 suspended in a solution with aprotinin, a serine proteinase inhibitor which helps reduce fibrolysis to retain the integrity of the fibrin matrix) was mixed with the fibrin precursor solution of syringe 2 (thrombin in a calcium chloride solution). TGplPTH1-34 was formulated into the fibrinogen component to give a final concentration in the matrix varying from of 0.1 mg/mL to 10 mg/mL of the fibrin matrix and during the gelation process TGplPTH1-34 became crosslinked to the matrix. Fibrin precursor solutions also contained other components of fibrin matrix, such as plasma fibronectin, Factor XIIIa, plasminogen, and human albumin. When the precursor solutions are in equal volumes, a clotting process occurs to form fibrin. The clotting process takes place over several minutes which allows for the simultaneous injection of the mixed solutions into syringe 4, which contain the wetted granules. The matrix can then be introduced at the site of need where it solidifies. Enough matrix was placed in the defect to completely fill it.
Animals: A total of 42 Swiss Alpine, female sheep ranging between 44-83 kg (mean: 62.8 kg) and 2.25-4.75 years of age were chosen as experimental animals. Seven groups were formed with autografts as positive and fibrin matrix plus TCP granules as negative controls. The other groups consisted of the same fibrin matrix and TCP granules, but differed only in dosage of the TGplPTH1-34. Groups were followed for 12 weeks, when animals were sacrificed at a university-owned slaughter house. All animal experiments were conducted according to the Swiss laws of animal protection and welfare and were authorized by the local Ethical Committee and Veterinary Authorities.
Surgery: A medial approach to the tibia shaft was performed directly above the bone and extending from the distal aspect of the stifle to the hock joint, the medial fascia of the tibia was incised and the medial aspect of the tibia exposed without disturbing the periosteum. A 11 hole, 3.5 mm broad dynamic compression plate (Synthes) was contoured to the shaft with the distal end of the plate ending above the tibiotarsal joint. The plate was fixed to the bone using eleven 3.5 mm screws in a neutral position and distributing five screw holes distally and six proximally to the planned defect. The screws and plate were removed. Thereafter, the defect was marked on the bone with a scalpel blade using a gage ensuring a standardized 1 cm defect between the 5th and 6th screw hole. With an oscillating saw, the defect was cut under constant irrigation and preservation of soft tissues. The 1 cm segment including the circumferential periosteum was carefully removed and local bleeding out of the bone marrow or local soft tissue was stopped applying pressure with a gauze. The plate was repositioned and all screws reinserted before the matrix was filled into the bone gap as described above. Care was taken to distribute the matrix equally underneath the plate, on the lateral and as well as the transcortex.
For the positive autograft control group, autogenic bone was harvested through a local incision directly above the iliac crest. […]

Setting [4] is: 1 mg TGplPTH1-34/mL fibrin matrix.

In the case of `CC[C@H](C)[C@H](NC(=O)[C@H](CCC(=O)O)NC(=O)[C@H](CO)NC(=O)[C@@H](NC(=O)[C@@H](N)CO)C(C)C)C(=O)N[C@@H](CCC(N)=O)C(=O)N[C@@H](CC(C)C)C(=O)N[C@@H](CCSC)C(=O)N[C@@H](Cc1cnc[nH]1)C(=O)N[C@@H](CC(N)=O)C(=O)N[C@@H](CC(C)C)C(=O)NCC(=O)N[C@@H](CCCCN)C(=O)N[C@@H](Cc1cnc[nH]1)C(=O)N[C@@H](CC(C)C)C(=O)N[C@@H](CC(N)=O)C(=O)N[C@@H](CO)C(=O)N[C@@H](CCSC)C(=O)N[C@@H](CCC(=O)O)C(=O)N[C@@H](CCCN=C(N)N)C(=O)N[C@H](C(=O)N[C@@H](CCC(=O)O)C(=O)N[C@@H](Cc1c[nH]c2ccccc12)C(=O)N[C@@H](CC(C)C)C(=O)N[C@@H](CCCN=C(N)N)C(=O)N[C@@H](CCCCN)C(=O)N[C@@H](CCCCN)C(=O)N[C@@H](CC(C)C)C(=O)N[C@@H](CCC(N)=O)C(=O)N[C@@H](CC(=O)O)C(=O)N[C@H](C(=O)N[C@@H](Cc1cnc[nH]1)C(=O)N[C@@H](CC(N)=O)C(=O)N[C@@H](Cc1ccccc1)C(=O)O)C(C)C)C(C)C` [PTH1-34], the “time stable in buffer” value in data set [1] is given as at most 2 days.

For “NQEQVSPLYKNRSVSEIQLMHNLGKHLNSMERVEWLRKKLQDVHNF (Modified Parathyroid hormone (PHT), comprisig amino acids 1-34 of native PTH as well as a transglutaminase substrate domain and a plasmin-degradable sequence) [TGplPTH1-34]”, the “% healed at 6 months (Clinician's assessment)” value was 75.6% (34 of 45) in data set [2] (0.133 mg TGplPTH1-34/ml fibrin matrix + SoC); 80.4%* (37 of 46) in data set [2] (0.4 mg TGplPTH1-34/ml fibrin matrix + SoC, p = 0.084 vs SoC alone); 69.2% (27 of 39) in data set [2] (1.0 mg TGplPTH1-34/ml fibrin matrix + SoC). Besides, the “amount of endosteal bone formation (histomorphometry)” value in data set [3] (setting [4]) is “higher than with the other concentrations of TGplPTH1-34”. In data set [3] (setting [4]), the “rate of granule resorption (histomorphometry)” value was “highest resorption rate”. Further, the animals showing bridging result in data set [3] (1 mg TGplPTH1-34/mL fibrin matrix, 8 weeks) is given as “one”. The “animals healed showing stable, clinical unions” value in data set [3] (1 mg TGplPTH1-34/mL fibrin matrix, after 12 weeks) was found to be 5 animals. Moreover, the “animals showing bending of the plate” value in data set [3] (1 mg TGplPTH1-34/mL fibrin matrix, within the first four weeks) is “one”. In data set [3] (0.4 and 1 mg TGplPTH1-34/mL fibrin matrix), the “periosteal healing compared to negative control material” value is given as “statistically stronger periosteal healing”. The “healing compared to autograft” value in data set [3] (0.4 and 1 mg TGplPTH1-34/mL fibrin matrix, 12 weeks) was “equivalent to autograft”. For the same compound, the “animals with unstable fracture site” value in data set [3] (12 weeks, plate removed, movement/torsion of the limb, TGplPTH1-34 at 1 mg/mL fibrin matrix, FIG. 4) is reported as “one”. The “periosteal healing response (radiographs)” value in data set [3] (doses between 0.4 and 2 mg TGplPTH1-34/mL fibrin matrix, every time point) is “much stronger periosteal healing response”. In data set [3] (higher doses of TGplPTH1-34), the “rates of endosteal bone formation and granule resorption” value is “lower rates of both endosteal bone formation and granule resorption”. Also, in data set [3] (higher doses than about 1 mg TGplPTH1-34/mL fibrin matrix, 12 weeks), the “stability of the defect at the endpoint” value was “much lower stability”.
